Results published in patent publication US9447069B2, “ROR modulators and their uses” (INNOV17 LLC, priority 2012, dated 2016).

Tests used:
[1] = test system: IL-17A; test: TH17 cytokine inhibition measured by ELISA (IL-17A); assay type: cell-based; details: 120 h; human TH17 cells, 5 days differentiation, ELISA of supernatants, 0.1% DMSO
Description: (§1) Peripheral blood mononuclear cells (PBMCs) were sourced from freshly prepared leukocyte enriched plasma (buffy coat) from healthy volunteers from which PBMCs were isolated by density gradient centrifugation using Ficoll-Paque™ PLUS (GE Healthcare). Naïve CD4+ T cells were isolated using the Naïve CD4+ T cell Isolation Kit II (Miltenyi Biotec) as per manufacturer's instructions. CD4+ T cells were plated at 5×10^4 cells/well in 96 well plates pre-coated with immobilized human (h)-αCD3 antibody (eBioscience) then differentiated to TH17 cells using h-αCD28, h-αIFN-γ, h-αIL-4, h-IL-6, h-IL-23, h-IL-1β, h-TGF-β1 (eBioscience) and maintained in a cell culture incubator at 37° C. with 5% CO2 in TexMACS Medium (Miltenyi Biotec) supplemented with 1% Penicillin/Streptomycin (Lonza) over 5 days.
(§2) Human CD4+ T cells were differentiated to TH17 cells as described in the presence or absence of various concentrations of compounds in a final concentration of 0.1% DMSO in TexMACS medium. Supernatants were collected and stored at −20° C. until they were to be assayed for IL-17A, IL-17F, IL-17AF, IL-21 and/or IL-22 levels as determined by Ready-Set-Go ELISA kits (eBioscience) as per manufacturer's instructions. Endpoint absorbance was read at 450 nm and 570 nm according to manufacturer's instructions (eBioscience) using a microplate reader (Perkin Elmer). The percentage of cytokine inhibition was calculated with reference to DMSO treated cells and the IC50s were determined by GraphPad Prism software and presented in the table below.

[2] = test system: IL-17F; test: TH17 cytokine inhibition measured by ELISA (IL-17F); assay type: cell-based; details: 120 h; human TH17 cells, 5 days differentiation, ELISA of supernatants, 0.1% DMSO
Description: as §1, §2

[3] = test system: IL-17AF; test: TH17 cytokine inhibition measured by ELISA (IL-17AF); assay type: cell-based; details: 120 h; human TH17 cells, 5 days differentiation, ELISA of supernatants, 0.1% DMSO
Description: as §1, §2

[4] = test system: IL-22; test: TH17 cytokine inhibition measured by ELISA (IL-22); assay type: cell-based; details: 120 h; human TH17 cells, 5 days differentiation, ELISA of supernatants, 0.1% DMSO
Description: as §1, §2

[5] = test system: IL-21; test: TH17 cytokine inhibition measured by ELISA (IL-21); assay type: cell-based; details: 120 h; human TH17 cells, 5 days differentiation, ELISA of supernatants, 0.1% DMSO
Description: as §1, §2

[6] = TH17 cell viability (Prestoblue); assay type: cell-based; details: human; 1 μM compound, after 5 days, percentage of DMSO treated cells
Description: as §1
Cells were assayed for viability in the presence or absence of 1 μM compound using Prestoblue® Cell Viability Reagent (Life Technologies) as per manufacturer's instructions after 30 minutes incubation of TH17 cells with reagent. Absorbance was measured at 570 nm and 600 nm using a microplate reader (Perkin Elmer) and data were analyzed as per manufacturer's instructions. Cell viability was determined after 5 days and expressed as a percentage of DMSO treated cells.

[7] = test system: TH17 cells; test: TH17 cellular proliferation (Prestoblue); assay type: cell-based; details: Homo sapiens, 120 h; 3 μM compound, after 5 day TH17 differentiation, relative to DMSO treated TH17 cells; read-out: % change in TH17 cell number
Description: as §1
Cellular proliferation was assessed in the presence or absence of 3 μM compound using Prestoblue® Cell Viability Reagent (Life Technologies) as per manufacturer's instructions using absorbance as the output measured by a microplate reader (Perkin Elmer) after 30 minutes of incubation. A standard curve developed by plotting varying cell numbers versus absorbance was used to assess differences in cellular proliferation between compound treated or untreated cells after the 5 day TH17 differentiation period.

[8] = biological target: T1, RORα LBD (Homo sapiens, UniProt P35398); test: TR-FRET D22 co-activator displacement from RORα LBD; assay type: biochemical
T1 construct: purified GST-tagged (i) RORγ LBD or (ii) RORα LBD; purchased Life Technologies
T1 sequence (P35398 272-510 limits assumed): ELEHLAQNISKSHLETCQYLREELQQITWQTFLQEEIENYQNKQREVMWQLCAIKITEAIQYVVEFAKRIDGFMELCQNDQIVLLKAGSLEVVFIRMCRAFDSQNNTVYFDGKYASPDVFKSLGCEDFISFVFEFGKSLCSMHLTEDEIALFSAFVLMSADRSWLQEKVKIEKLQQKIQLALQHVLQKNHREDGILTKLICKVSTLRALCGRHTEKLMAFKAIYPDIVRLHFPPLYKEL
From the text: (§3) The Time-Resolved Fluorescence Resonance Energy Transfer (TR-FRET) assay kit (Life Technologies) was used to measure compound efficacy to disrupt or enhance ligand-mediated interaction of the co-activator and co-repressor peptides with the purified GST-tagged (i) RORγ LBD or (ii) RORα LBD. The RORγ LBD and RORα LBD each have a basal level of interaction with the co-activator D22 or co-repressor NCoR1-D2 in the absence of ligand, thus it is possible to identify compounds that inhibit or induce RORγ and/or RORα co-activator/co-repressor interactions, thus determining RORα, RORγ, or RORα/RORγ compound selectivity. The assay was performed as per manufacturer's instructions and TR-FRET was assessed 2 and 20 hours post-assay initiation. Compounds were identified to (i) have no impact on either co-activator displacement or […] from the assessed LBD (ii) promote co-activator displacement from the assessed LBD (iii) promote co-repressor recruitment to the assessed LBD or (iv) concurrently promote co-activator displacement from the assessed LBD and co-repressor recruitment to the assessed LBD.

[9] = biological target: T1, RORα LBD; test: TR-FRET NCoR1-D2 co-repressor recruitment to RORα LBD; assay type: biochemical
From the text: as §3

[10] = biological target: T2, RORγ LBD (Homo sapiens, UniProt P51449); test: TR-FRET D22 co-activator displacement from RORγ LBD; assay type: biochemical; parameters: purified GST-tagged (i) RORγ LBD or (ii) RORα LBD; purchased Life Technologies
T2 sequence (P51449 269-508 limits assumed): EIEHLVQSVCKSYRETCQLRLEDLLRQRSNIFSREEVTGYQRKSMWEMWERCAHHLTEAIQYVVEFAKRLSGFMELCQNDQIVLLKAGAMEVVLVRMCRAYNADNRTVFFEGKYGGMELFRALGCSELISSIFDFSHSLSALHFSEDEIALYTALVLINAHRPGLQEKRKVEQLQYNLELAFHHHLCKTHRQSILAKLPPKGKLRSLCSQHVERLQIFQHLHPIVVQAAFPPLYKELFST
From the text: as §3

[11] = biological target: T2, RORγ LBD; test: TR-FRET NCoR1-D2 co-repressor recruitment to RORγ LBD; assay type: biochemical; parameters: purified GST-tagged (i) RORγ LBD or (ii) RORα LBD; purchased Life Technologies
From the text: as §3

[12] = TR-FRET assessed 2 hr post-assay initiation, read-out: RORα EC50 D22 co-activator displacement, 2 hr
[13] = TR-FRET assessed 20 hr post-assay initiation, read-out: RORα EC50 D22 co-activator displacement, 20 hr
[14] = TR-FRET assessed 2 hr post-assay initiation, read-out: RORα EC50 NCoR1-D2 co-repressor recruitment, 2 hr
[15] = TR-FRET assessed 20 hr post-assay initiation, read-out: RORα EC50 NCoR1-D2 co-repressor recruitment, 20 hr
[16] = TR-FRET assessed 2 hr post-assay initiation, read-out: RORγ EC50 D22 co-activator displacement, 2 hr
[17] = TR-FRET assessed 20 hr post-assay initiation, read-out: RORγ EC50 D22 co-activator displacement, 20 hr
[18] = TR-FRET assessed 2 hr post-assay initiation, read-out: RORγ EC50 NCoR1-D2 co-repressor recruitment, 2 hr
[19] = TR-FRET assessed 20 hr post-assay initiation, read-out: RORγ EC50 NCoR1-D2 co-repressor recruitment, 20 hr

Row | SMILES | IC50 [1] [µM] | IC50 [2] [µM] | IC50 [3] [µM] | IC50 [4] [µM] | IC50 [5] [µM] | viability at 5 days, 1 µM [6] [%] | inhibition at 3 µM [7] [%] | EC50 [8, 12] [µM] | EC50 [8, 13] [µM] | EC50 [9, 14] [µM] | EC50 [9, 15] [µM] | EC50 [10, 16] [µM] | EC50 [10, 17] [µM] | EC50 [11, 18] [µM] | EC50 [11, 19] [µM] | melting point [°C]
1 | Cc1cc(-c2ccc3c(c2)CCN3Cc2ccc(C(O)(C(F)(F)F)C(F)(F)F)cc2)[nH]n1 [Example 7, 1,1,1,3,3,3-hexafluoro-2-(4-((5-(3-methyl-1H-pyrazol-5-yl)indolin-1-yl)methyl)phenyl)propan-2-ol] | < 10 | < 10 | < 10 | < 10 | < 10 | > 80 | > 50 | < 30 | < 30 | > 30 | < 30 | < 30 | < 30 | < 30 | < 30 | –
2 | OC(c1ccc(CN2CCc3cc(-c4cn[nH]c4)ccc32)cc1)(C(F)(F)F)C(F)(F)F [Example 8, 2-(4-((5-(1H-pyrazol-4-yl)indolin-1-yl)methyl)phenyl)-1,1,1,3,3,3-hexafluoropropan-2-ol] | < 10 | < 10 | < 10 | < 10 | < 10 | > 80 | > 50 | > 30 | < 30 | < 30 | > 30 | < 30 | < 30 | < 30 | > 30 | 191 to 195
3 | Cc1nnc(-c2ccc3c(c2)CCN3Cc2ccc(C(O)(C(F)(F)F)C(F)(F)F)cc2)o1 [Example 9, 1,1,1,3,3,3-hexafluoro-2-(4-((5-(5-methyl-1,3,4-oxadiazol-2-yl)indolin-1-yl)methyl)phenyl)propan-2-ol] | < 10 | < 10 | > 10 | < 10 | < 10 | > 80 | > 50 | > 30 | < 30 | > 30 | < 30 | > 30 | > 30 | < 30 | > 30 | –
